Data from ChEMBL document CHEMBL1156467, “Inhibition of GLI-mediated transcription and tumor cell growth by small-molecule antagonists” (Proc Natl Acad Sci U S A, 2007).
Active and inactive are the calls of the source. No cut-off for these calls is given here.

Legend:
[1] = system: NIH3T3; assay: Effect on Hedgehog signaling in mouse NIH3T3 cells assessed as transactivation of Ras-Raf-Mek-Mapk cascade; type: functional, cell-based
[2] = Inhibition of Hedgehog signaling in […] Shh-L2 cells; type: functional, cell-based
[3] = Inhibition of Gli1 dependent growth of human 22Rv cells at 5 uM; type: functional; design: scale not given: the % may be the effect or the level left
[4] = target: T1, Zinc finger protein GLI1 (Mus musculus) (UniProt P47806); assay: Inhibition of GLI1 induced hedgehog signaling in mouse NIH3T3 cells; type: cell-based
T1 sequence (whole entry): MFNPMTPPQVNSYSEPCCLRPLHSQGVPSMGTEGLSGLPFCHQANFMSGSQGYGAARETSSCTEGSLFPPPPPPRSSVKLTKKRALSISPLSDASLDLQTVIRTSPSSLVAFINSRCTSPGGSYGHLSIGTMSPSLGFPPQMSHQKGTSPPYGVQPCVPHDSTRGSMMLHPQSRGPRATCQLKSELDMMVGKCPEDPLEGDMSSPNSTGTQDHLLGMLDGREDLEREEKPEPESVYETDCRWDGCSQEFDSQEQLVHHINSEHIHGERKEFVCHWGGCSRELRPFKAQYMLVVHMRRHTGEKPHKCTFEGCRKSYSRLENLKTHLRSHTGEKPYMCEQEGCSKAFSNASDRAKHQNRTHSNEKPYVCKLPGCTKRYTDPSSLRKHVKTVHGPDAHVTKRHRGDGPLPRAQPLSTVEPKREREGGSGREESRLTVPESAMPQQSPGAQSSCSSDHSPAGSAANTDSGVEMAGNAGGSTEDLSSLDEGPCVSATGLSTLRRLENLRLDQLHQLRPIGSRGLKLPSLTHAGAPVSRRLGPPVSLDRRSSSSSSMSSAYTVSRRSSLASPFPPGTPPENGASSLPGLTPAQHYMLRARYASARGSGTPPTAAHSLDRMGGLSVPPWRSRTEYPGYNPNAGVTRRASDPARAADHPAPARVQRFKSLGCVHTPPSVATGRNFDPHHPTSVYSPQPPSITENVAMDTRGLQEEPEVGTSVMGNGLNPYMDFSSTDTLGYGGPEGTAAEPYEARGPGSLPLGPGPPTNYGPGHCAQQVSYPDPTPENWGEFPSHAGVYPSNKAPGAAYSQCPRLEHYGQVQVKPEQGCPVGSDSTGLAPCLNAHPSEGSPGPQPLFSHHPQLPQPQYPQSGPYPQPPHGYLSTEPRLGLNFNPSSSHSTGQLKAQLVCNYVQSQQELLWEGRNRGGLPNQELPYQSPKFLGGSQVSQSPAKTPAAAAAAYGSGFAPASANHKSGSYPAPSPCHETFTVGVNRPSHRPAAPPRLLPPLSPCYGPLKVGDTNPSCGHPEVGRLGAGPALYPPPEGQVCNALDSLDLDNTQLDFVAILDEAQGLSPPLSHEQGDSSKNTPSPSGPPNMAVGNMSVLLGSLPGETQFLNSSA

[5] = system: NIH3T3; assay: Effect on Hedgehog signaling in mouse NIH3T3 cells assessed as activation of NF kappaB; type: functional, cell-based
[6] = system: Jurkat; assay: Induction of apoptosis in human Jurkat cells assessed as caspase3/7 cleavage by luminometric assay; type: functional, cell-based
[7] = system: NIH3T3; assay: Induction of apoptosis in mouse NIH3T3 cells assessed as caspase3/7 cleavage by luminometric assay; type: functional, cell-based
[8] = system: NIH3T3; assay: Cytotoxicity against mouse NIH3T3 cells at 10 uM after 48 hrs assessed as reduction in cell viability by MTS assay; type: functional, cell-based
[9] = species: Mus musculus; assay: Antiproliferative activity against mouse embryonic fibroblast at 10 uM assessed as microarray method; type: functional
[10] = target: T2, Zinc finger protein GLI1 (Homo sapiens) (UniProt P08151); assay: Reduction of GLI1 mediated transcription in HEK293 cells by luciferase reporter assay; type: cell-based
T2 sequence (whole entry): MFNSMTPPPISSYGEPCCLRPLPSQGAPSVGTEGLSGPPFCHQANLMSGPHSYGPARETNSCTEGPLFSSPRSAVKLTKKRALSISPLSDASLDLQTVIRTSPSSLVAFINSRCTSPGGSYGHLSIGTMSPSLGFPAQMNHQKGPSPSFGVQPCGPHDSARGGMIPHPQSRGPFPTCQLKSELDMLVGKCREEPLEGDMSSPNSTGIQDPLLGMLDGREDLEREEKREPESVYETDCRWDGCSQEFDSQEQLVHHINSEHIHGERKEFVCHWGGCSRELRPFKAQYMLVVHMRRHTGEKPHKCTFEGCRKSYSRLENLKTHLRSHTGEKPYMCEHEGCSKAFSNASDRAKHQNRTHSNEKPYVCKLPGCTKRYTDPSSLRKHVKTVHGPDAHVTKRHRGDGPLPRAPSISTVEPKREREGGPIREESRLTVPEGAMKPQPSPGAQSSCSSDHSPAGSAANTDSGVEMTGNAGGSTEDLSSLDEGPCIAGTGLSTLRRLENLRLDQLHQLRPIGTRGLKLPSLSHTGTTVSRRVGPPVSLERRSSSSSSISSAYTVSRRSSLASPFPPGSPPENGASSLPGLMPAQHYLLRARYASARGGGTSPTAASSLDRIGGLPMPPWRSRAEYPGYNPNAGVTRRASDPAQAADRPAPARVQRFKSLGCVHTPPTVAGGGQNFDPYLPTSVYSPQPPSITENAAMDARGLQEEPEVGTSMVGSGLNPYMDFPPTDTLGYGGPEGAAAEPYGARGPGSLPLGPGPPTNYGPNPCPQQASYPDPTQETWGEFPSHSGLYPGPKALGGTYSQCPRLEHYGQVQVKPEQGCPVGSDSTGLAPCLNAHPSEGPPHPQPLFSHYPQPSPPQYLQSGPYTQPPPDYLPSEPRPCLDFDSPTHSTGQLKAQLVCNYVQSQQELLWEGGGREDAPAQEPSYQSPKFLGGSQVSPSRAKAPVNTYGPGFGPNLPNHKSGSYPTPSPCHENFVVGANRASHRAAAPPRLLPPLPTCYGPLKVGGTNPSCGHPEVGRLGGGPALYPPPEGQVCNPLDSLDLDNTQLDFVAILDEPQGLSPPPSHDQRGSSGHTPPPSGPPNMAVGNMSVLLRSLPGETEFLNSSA

[11] = system: NIH3T3; assay: Inhibition of Hedgehog/Gli1 mediated transformation in mouse NIH3T3 cells at 10 uM; type: functional, cell-based
[12] = species: Mus musculus; assay: Reduction of Ptch1-lacZ level in mouse embryonic fibroblast by luminometric assay; type: functional
[13] = Antiproliferative activity against Ptch deficient mouse embryonic fibroblast at 10 uM by BrdU incorporation; type: functional
[14] = system: HepG2; assay: Induction of apoptosis in human HepG2 cells assessed as caspase3/7 cleavage by luminometric assay; type: functional, cell-based
[15] = Reduction in expression of Hedgehog target gene Gli1 in Sufu deficient mouse embryonic fibroblast; type: functional
[16] = system: HepG2; assay: Cytotoxicity against human HepG2 cells at 10 uM after 48 hrs assessed as reduction in cell viability by MTS assay; type: functional, cell-based
[17] = Reduction of expression of PTCH mRNA in human 22Rv cells; type: functional, cell-based
[18] = species: Mus musculus; assay: Reduction of Gil1 mRNA levels at 10 uM in Ptch deficient mouse embryonic fibroblast; type: functional
[19] = system: HEK293; assay: Inhibition of nuclear accumulation of GLI mutant in HEK293 cells; type: functional, cell-based; conditions: Homo sapiens
[20] = Reduction in GlI1 expression in human 22Rv cells at 5 uM; type: functional, cell-based
[21] = system: PANC-1; assay: Inhibition of Gli1 dependent growth of human PANC1 cells at 5 uM; type: functional; design: scale not given: the % may be the effect or the level left
[22] = species: Mus musculus; assay: Cytotoxicity against wild type mouse embryonic fibroblast at 10 uM after 48 hrs assessed as reduction in cell viability by MTS assay; type: functional
[23] = system: HEK293; assay: Inhibition of beta galactosidase in HEK293 cells; type: cell-based; conditions: Homo sapiens
[24] = system: PANC-1; assay: Reduction in GLI1 expression in human PANC1 cells at 5 uM; type: functional, cell-based
[25] = system: NIH3T3; assay: Effect on Hedgehog signaling in mouse NIH3T3 cells assessed as activation of TNF signaling; type: functional, cell-based
[26] = target: T2, Zinc finger protein GLI1 (Homo sapiens); assay: Inhibition of GLI via PKA activation in HEK293 cells; type: cell-based
[27] = system: Homo sapiens; assay: Antitumor activity in GLI1 positive human 22Rv cells xenografted mouse model at 50 mg/kg, sc after 18 days; type: functional, organism-based; design: dose 50 mg/kg
[28] = system: DU146; assay: Induction of apoptosis in human […] cells assessed as caspase3/7 cleavage by luminometric assay; type: functional, cell-based
[29] = system: CWR22R; assay: Induction of apoptosis in human 22Rv1 cells assessed as caspase3/7 cleavage by luminometric assay; type: functional, cell-based
[30] = target: T2, Zinc finger protein GLI1 (Homo sapiens); assay: Alteration in DNA binding to GLI1 in HEK293 cells; type: cell-based
[31] = Reduction in PTCH expression in human 22Rv cells at 5 uM; type: functional, cell-based
[32] = system: NIH3T3; assay: Effect on Hedgehog signaling in mouse NIH3T3 cells assessed as transactivation of glucocorticoid receptor; type: functional, cell-based
[33] = system: HEK293; assay: Inhibition of nuclear accumulation of wild type GLI in HEK293 cells; type: functional, cell-based; conditions: Homo sapiens
[34] = system: HepG2; assay: Inhibition of Gli1 dependent growth of human HepG2 cells at 5 uM; type: functional; design: scale not given: the % may be the effect or the level left
[35] = system: PANC-1; assay: Reduction in PTCH expression in human PANC1 cells at 5 uM; type: functional, cell-based
[36] = system: HEK293; assay: Induction of apoptosis in HEK293 cells assessed as caspase3/7 cleavage by luminometric assay; type: functional, cell-based; conditions: Homo sapiens
[37] = system: Jurkat; assay: Inhibition of Gli1 dependent growth of human Jurkat cells at 5 uM; type: functional; design: scale not given: the % may be the effect or the level left
[38] = target: Zinc finger protein GLI2 (Homo sapiens) (UniProt P10070); assay: Reduction of GLI2 mediated transcription in HEK293 cells by luciferase reporter assay; type: cell-based
[39] = system: MEF; assay: Reduction in expression of Hedgehog target gene Hip1 in Sufu deficient mouse MEF cells; type: functional, cell-based

Zinc finger protein GLI2 (Homo sapiens), sequence (P10070 whole entry): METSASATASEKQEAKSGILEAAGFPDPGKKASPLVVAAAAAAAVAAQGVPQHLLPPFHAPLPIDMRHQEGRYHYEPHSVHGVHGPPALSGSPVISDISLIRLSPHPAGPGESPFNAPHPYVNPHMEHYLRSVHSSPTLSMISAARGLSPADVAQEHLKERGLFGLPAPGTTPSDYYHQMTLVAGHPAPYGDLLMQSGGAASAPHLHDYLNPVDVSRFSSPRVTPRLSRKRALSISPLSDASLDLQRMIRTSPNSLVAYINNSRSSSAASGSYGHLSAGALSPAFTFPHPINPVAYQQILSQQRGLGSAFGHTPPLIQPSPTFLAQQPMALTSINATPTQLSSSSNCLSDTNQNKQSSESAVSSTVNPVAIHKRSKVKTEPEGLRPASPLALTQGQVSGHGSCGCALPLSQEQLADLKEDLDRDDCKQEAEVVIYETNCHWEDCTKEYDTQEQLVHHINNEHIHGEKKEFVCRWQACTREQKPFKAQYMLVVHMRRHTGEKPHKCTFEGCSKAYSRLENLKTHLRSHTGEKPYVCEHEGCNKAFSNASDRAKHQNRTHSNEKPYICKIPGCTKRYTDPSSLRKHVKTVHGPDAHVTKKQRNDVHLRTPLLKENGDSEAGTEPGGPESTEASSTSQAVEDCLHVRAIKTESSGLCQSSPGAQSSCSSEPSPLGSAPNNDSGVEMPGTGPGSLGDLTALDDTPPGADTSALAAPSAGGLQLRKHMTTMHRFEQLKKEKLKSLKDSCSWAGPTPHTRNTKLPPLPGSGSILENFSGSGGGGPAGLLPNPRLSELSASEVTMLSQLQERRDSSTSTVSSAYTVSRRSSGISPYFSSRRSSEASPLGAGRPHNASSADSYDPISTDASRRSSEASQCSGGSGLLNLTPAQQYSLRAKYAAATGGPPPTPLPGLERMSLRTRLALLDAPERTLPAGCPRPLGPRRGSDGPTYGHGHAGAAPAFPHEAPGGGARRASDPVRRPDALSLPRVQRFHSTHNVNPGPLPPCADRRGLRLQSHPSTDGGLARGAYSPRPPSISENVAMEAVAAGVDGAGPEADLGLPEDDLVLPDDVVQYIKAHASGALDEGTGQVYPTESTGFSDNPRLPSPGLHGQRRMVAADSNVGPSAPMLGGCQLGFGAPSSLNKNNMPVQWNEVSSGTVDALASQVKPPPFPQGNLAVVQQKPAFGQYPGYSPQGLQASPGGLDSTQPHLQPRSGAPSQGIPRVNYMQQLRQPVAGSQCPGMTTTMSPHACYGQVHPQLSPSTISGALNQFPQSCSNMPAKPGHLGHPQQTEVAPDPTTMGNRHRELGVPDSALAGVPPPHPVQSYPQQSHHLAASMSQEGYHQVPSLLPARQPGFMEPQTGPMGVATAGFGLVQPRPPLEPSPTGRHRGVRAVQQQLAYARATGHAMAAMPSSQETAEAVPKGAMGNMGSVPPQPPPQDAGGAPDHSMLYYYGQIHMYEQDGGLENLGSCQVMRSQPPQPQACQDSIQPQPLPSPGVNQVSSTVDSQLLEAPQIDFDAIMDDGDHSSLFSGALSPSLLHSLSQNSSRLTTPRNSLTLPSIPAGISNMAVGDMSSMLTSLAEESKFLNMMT

Structure (SMILES): CN(C)c1ccccc1CN1CCCN(Cc2ccccc2N(C)C)C1c1ccncc1
- Activity [1]: inactive
- IC50 [2]: 5 µM
- Activity [3]: 40%
- Activity [4]: Active
- Activity [5]: inactive
- Activity [6]: inactive
- Activity [7]: inactive
- Activity [8]: inactive
- Activity [9]: Active
- Activity [10]: Active
- Activity [11]: Active
- Activity [12]: Active
- Activity [13]: 40%
- Activity [14]: inactive
- Activity [15]: Active
- Activity [16]: inactive
- Activity [17]: Active
- Activity [18]: Active
- Activity [19]: Active
- Activity [20]: Active
- Activity [21]: 40%
- Activity [22]: inactive
- Activity [23]: Active
- Activity [24]: Active
- Activity [25]: inactive
- Activity [26]: inactive
- Activity [27]: Active
- Activity [28]: inactive
- Activity [29]: inactive
- Activity [30]: inactive
- Activity [31]: Active
- Activity [32]: inactive
- Activity [33]: Active
- Activity [34]: 0%
- Activity [35]: Active
- Activity [36]: inactive
- Activity [37]: 0%
- Activity [38]: Active
- Activity [39]: Active

Structure (SMILES): CC1=C2C[C@H]3[C@@H](CC=C4C[C@@H](O)CC[C@@]43C)[C@@H]2CC[C@]12O[C@@H]1C[C@H](C)CN[C@H]1[C@H]2C [CYCLOPAMINE]
- Activity [12]: Active
- Activity [13]: 40%
- Activity [15]: inactive
- Activity [17]: Active
- Activity [18]: Active
- Activity [23]: Active
- Activity [39]: inactive

Structure (SMILES): c1cc(-c2sc(-c3ccncc3)c(-c3ccncc3)c2-c2ccncc2)ccn1
- Activity [1]: inactive
- IC50 [2]: 5 µM
- Activity [3]: 40%
- Activity [4]: Active
- Activity [5]: inactive
- Activity [6]: inactive
- Activity [7]: inactive
- Activity [10]: Active
- Activity [11]: Active
- Activity [12]: Active
- Activity [13]: 40%
- Activity [14]: inactive
- Activity [15]: Active
- Activity [17]: Active
- Activity [18]: Active
- Activity [19]: Active
- Activity [20]: Active
- Activity [21]: 40%
- Activity [23]: Active
- Activity [24]: Active
- Activity [25]: inactive
- Activity [26]: inactive
- Activity [27]: Active
- Activity [28]: inactive
- Activity [29]: inactive
- Activity [30]: inactive
- Activity [31]: Active
- Activity [32]: inactive
- Activity [33]: Active
- Activity [34]: 0%
- Activity [35]: Active
- Activity [36]: inactive
- Activity [37]: 0%
- Activity [38]: Active
- Activity [39]: Active
